The results in this text go back to ChEMBL document CHEMBL4411327, “Discovery of pyrimidine nucleoside dual prodrugs and pyrazine nucleosides as novel anti-HCV agents” (Bioorg Med Chem, 2019).

Where only a bound is given, the exact number is not on record here.

A short description of data set [1]: Stability in human liver microsomes assessed as parent compound remaining at 0.1 uM preincubated with MgCl2 for 10 mins followed by NADPH addition measured after 7 mins by LC-MS/MS analysis. It counts as ADME, Microsome. As to conditions: read-out: Stability. On the technique in general: Microsomes from liver hold many membrane-bound enzymes, among them those of drug oxidation.

Data set [2] is described as follows: Stability in human liver microsomes assessed as parent compound remaining at 0.1 uM preincubated with MgCl2 for 10 mins followed by NADPH addition measured after 60 mins by LC-MS/MS analysis. Type of data set: ADME, Microsome. As to conditions: read-out: Stability.
Data set [3] can be described thus: Stability in human liver microsomes assessed as parent compound remaining at 0.1 uM preincubated with MgCl2 for 10 mins followed by NADPH addition measured after 17 mins by LC-MS/MS analysis. It counts as ADME, Microsome. As to conditions: microsomes, 17 min, 0.1 µM.
Data set [4] is described as follows: Stability in human plasma assessed as parent compound remaining at 40 uM measured after 5 hrs by LC-MS/MS analysis. Type of data set: ADME, cell-free. The conditions noted are these: read-out: Stability.
Data set [5] can be described thus: Stability in human plasma assessed as parent compound remaining at 40 uM measured after 2 hrs by LC-MS/MS analysis. Type of data set: ADME, cell-free. The conditions noted are these: read-out: Stability.
The nature of data set [6]: Cytotoxicity against human HuH7 cells infected with HCV genotype 1b replicon after 72 hrs by CellTiter-Fluor reagent based fluorescence assay. Type of data set: cell-based, Huh-7.
Data set [7] is described as follows: Stability in human liver microsomes assessed as parent compound remaining at 0.1 uM preincubated with MgCl2 for 10 mins followed by NADPH addition measured after 30 mins by LC-MS/MS analysis. Type of data set: ADME, Microsome. As to conditions: microsomes, 0.5 h, 0.1 µM.
Data set [8] relates to Hepatitis C virus. In words: Antiviral activity against HCV genotype 1b replicon infected in human HuH7 cells after 72 hrs by bright-glo luciferase reporter gene assay. It counts as functional, organism-based, Hepacivirus hominis. The conditions noted are these: subtype 1b, Huh-7, 72 h.
The nature of data set [9]: Half life in human liver microsomes at 0.1 uM preincubated with MgCl2 for 10 mins followed by NADPH addition by LC-MS/MS analysis. Type of data set: ADME, Microsome. The conditions noted are these: microsomes, 0.1 µM.
Data set [10] can be described thus: Stability in human liver microsomes assessed as parent compound remaining at 0.1 uM preincubated with MgCl2 for 10 mins followed by NADPH addition measured immediately by LC-MS/MS analysis. It counts as ADME, Microsome. The conditions noted are these: read-out: Stability.
The nature of data set [11]: Stability in human plasma assessed as parent compound remaining at 40 uM measured immediately by LC-MS/MS analysis. Type of data set: ADME, cell-free. As to conditions: read-out: Stability.
Data set [12] can be described thus: Stability in human plasma assessed as parent compound remaining at 40 uM measured after 1 hr by LC-MS/MS analysis. It counts as ADME, cell-free. As to conditions: read-out: Stability.
A short description of data set [13]: Half life in human plasma at 40 uM by LC-MS/MS analysis. Type of data set: ADME, cell-free.
Data set [14] is described as follows: Metabolic bioavailability in human liver microsomes at 0.1 uM preincubated with MgCl2 for 10 mins followed by NADPH addition measured within 60 mins by LC-MS/MS analysis. Type of data set: ADME, Microsome.
The subject of data set [15] is Hepatitis C virus. Briefly: Antiviral activity against HCV genotype 1b replicon infected in human HuH7 cells at 10 uM after 72 hrs by bright-glo luciferase reporter gene assay relative to control. It counts as functional, Hepacivirus hominis. The conditions noted are these: subtype 1b, Huh-7, 72 h. Background: Replicon systems follow genome replication, usually without infectious particles.

The nature of data set [16]: Stability in human plasma assessed as parent compound remaining at 40 uM measured after 0.5 hrs by LC-MS/MS analysis. It counts as ADME, cell-free. As to conditions: read-out: Stability.

One may read the CC50 as the concentration giving 50% cytotoxicity. One may read the EC50 as the concentration at which the effect is half-maximal. Low values mean a more potent agent, high ones a less potent agent. Broadly, the half-life is how long it takes for the measured level to halve. Lower therefore signals rapid decline. For orientation: inhibition means how much of the control response was suppressed. High values mean strong suppression, low ones little suppression. For the compound `CC(C)OC(=O)OC(C)n1c(=O)ccn([C@@H]2O[C@H](CO[P@@](=O)(N[C@@H](C)C(=O)OC(C)C)Oc3ccccc3)[C@@H](O)[C@@]2(C)F)c1=O` (stereo partly specified), the remaining at 7 min, 0.1 µM in [1] amounted to 51.2%. Moreover, the remaining at 1 h, 0.1 µM in data set [2] turned out to be 0%. Further, the Stability is listed as 12.8% in data set [3] and 2.1% in [7]. In addition, the remaining at 5 h, 40 µM in data set [4] is 78.9%. Also, the remaining at 2 h, 40 µM in data set [5] turned out to be 85.3%. In data set [6], this compound had a CC50 at 72 h of over 10000 nM. This compound displayed an EC50 with Hepatitis C virus [8] of 220 nM. In [9], this compound came in with a t1/2 of 0.225 h. In data set [10], the remaining at 0 min, 0.1 µM came to 100%. Moreover, the remaining at 0 h, 40 µM in data set [11] amounted to 100%. For the same compound, in [12], the remaining at 1 h, 40 µM worked out at 90%. Besides, the half-life at 40 µM in data set [13] was 16.4 h. For the same compound, the Fh at 1 h, 0.1 µM in data set [14] came to 11.2%. The same compound came in with an inhibition at 10 µM in the data set on Hepatitis C virus [15] of 99.8%. Moreover, in data set [16], the remaining at 0.5 h, 40 µM was 92.8%.
